A short description of the data set: HILIC, Waters Atlantis Premier BEH Z-HILIC, 100 × 2.1 mm, 1.7 µm, 40 °C, 0.17 mL/min, estimated dead time 1.3 min; A: water + 20 mM ammonium carbonate + 5 µM medronic acid; B: 10% water + 90% acetonitrile + 2 mM ammonium carbonate + 0.5 µM medronic acid; gradient (min/%B) 0/100 18/60 18.1/20 21.5/20 22/100 23.5/100 25.5/100. The note with it: stereoisomer not certain.
For the compound `O=C(CO)COP(=O)(O)O` [Triose phosphate], the LC retention time was 9.76 min.
As to `NC(=O)c1ccc[n+](C2OC(COP(=O)(O)OP(=O)(O)OCC3OC(n4cnc5c(N)ncnc54)C(O)C3O)C(O)C2O)c1` (centres undefined) [NAD], the LC retention time is 10.7 min.
Then `C[N+](C)(C)CC(O)CC(=O)[O-]` (centres undefined) [Carnitine], with 9.73 min.
With `Nc1nc2c(ncn2C2OC(COP(=O)(O)OP(=O)(O)OP(=O)(O)O)C(O)C2O)c(=O)[nH]1` (centres undefined) [GTP], the LC retention time is 15.3 min.
The result for `CC(=O)SCCNC(=O)CCNC(=O)C(O)C(C)(C)COP(=O)(O)OP(=O)(O)OCC1OC(n2cnc3c(N)ncnc32)C(O)C1OP(=O)(O)O` (centres undefined) [Acetyl-CoA] reads 10.5 min.
The result for `Nc1ncnc2c1ncn2C1OC(CO)C(O)C1O` (centres undefined) [Adenosine] reads 4.21 min.
Then `CCC(C)C(N)C(=O)O` (centres undefined) [Isoleucine], with 5.97 min; and `NC(=O)c1ccc[n+](C2OC(COP(=O)(O)OP(=O)(O)OCC3OC(n4cnc5c(N)ncnc54)C(OP(=O)(O)O)C3O)C(O)C2O)c1` (centres undefined) [NADP], with 13.4 min; and `O=P(O)(O)OCC1OC(O)C(O)C(O)C1O` (centres undefined) [Glucose-6-phosphate], with 12.4 min.
On to `O=P(O)(O)OCC1OC(O)(COP(=O)(O)O)C(O)C1O` (centres undefined) [Fructose-1,6-bisphosphate], for which the LC retention time was 15.2 min.
The result for `NC(=O)CCC(N)C(=O)O` (centres undefined) [Glutamine] reads 10.4 min; that for `Cc1cc2nc3c(=O)[nH]c(=O)nc-3n(CC(O)C(O)C(O)COP(=O)(O)OP(=O)(O)OCC3OC(n4cnc5c(N)ncnc54)C(O)C3O)c2cc1C` (centres undefined) [FAD], 7.12 min; that for `O=C(O)C(CO)OP(=O)(O)O` (centres undefined) [Phosphoglyceric acid A], 12.2 min.
Then `OCC1OC(O)C(O)C(O)C1O` (centres undefined) [Hexose], with 7.55 min; and `CC(O)C(=O)O` (centres undefined) [Lactic Acid], with 2.96 min.
The result for `CC(=O)NC1C(OP(=O)(O)OP(=O)(O)OCC2OC(n3ccc(=O)[nH]c3=O)C(O)C2O)OC(CO)C(O)C1O` (centres undefined) [UDP-GlcNAc] reads 9.68 min.
Take `Nc1ncnc2c1ncn2C1OC(COP(=O)(O)OP(=O)(O)OP(=O)(O)O)C(O)C1O` (centres undefined) [ATP]: the LC retention time was 13 min.
Then `CC(C)CC(N)C(=O)O` (centres undefined) [Leucine], with 5.72 min; and `O=C(CO)C(O)C(O)C(O)COP(=O)(O)O` (centres undefined) [Fructose 6-phosphate], with 10.9 min; and `Nc1ncnc2c1ncn2C1OC(COP(=O)(O)O)C(O)C1O` (centres undefined) [AMP], with 8.86 min.
For the compound `O=C(O)CCC(=O)C(=O)O` [2-Oxoglutaric acid], the LC retention time is 9.07 min.
Then `O=C(O)CC(O)(CC(=O)O)C(=O)O` [Citric acid], with 13.9 min; and `NC(CCC(=O)O)C(=O)O` (centres undefined) [Glutamic acid], with 9.15 min.
As to `C=C(OP(=O)(O)O)C(=O)O` [PEP], the LC retention time is 13.8 min.
Then `O=P(O)(O)OCC(O)CO` (centres undefined) [Glycerol-3-phosphate], with 9.75 min; and `Nc1ncnc2c1ncn2C1OC(COP(=O)(O)OP(=O)(O)O)C(O)C1O` (centres undefined) [ADP], with 11 min.
The result for `O=C1CC(C(=O)O)NC(=O)N1` (centres undefined) [dihydroorotic acid] reads 4.87 min; that for `O=C(O)CCCCC1SCC2NC(=O)NC21` (centres undefined) [Biotin], 4.19 min.
With `O=C(O)CCC(=O)O` [Succinic Acid], the LC retention time is 9.16 min.
`O=C(O)CCC(O)C(=O)O` (centres undefined) [2-hydroxy glutaric acid]: the LC retention time is 9.81 min.
As to `CC(C)(COP(=O)(O)OP(=O)(O)OCC1OC(n2cnc3c(N)ncnc32)C(O)C1OP(=O)(O)O)C(O)C(=O)NCCC(=O)NCCS` (centres undefined) [CoenzymeA], the LC retention time is 11.9 min.
The result for `CCC(=O)OC(CC(=O)[O-])C[N+](C)(C)C` (centres undefined) [carnitine-C3] reads 6.63 min.
Then `NC(=O)C1=CN(C2OC(COP(=O)(O)OP(=O)(O)OCC3OC(n4cnc5c(N)ncnc54)C(O)C3O)C(O)C2O)C=CC1` (centres undefined) [NADH], with 8.45 min; and `O=C(O)CC(C(=O)O)C(O)C(=O)O` (centres undefined) [Isocitric acid], with 14.5 min.
